“Also recorded” adds a separate entry of the source.
How the values were obtained:
[1] = system: p53/Mdm2, p53/MdmX or Mdm2/MdmX complex; experiment: co-immunoprecipitation of p53/Mdm2/MdmX complexes in MCF7 cells; type: cell-based, human; conditions: 10 μg/ml, 6 hours
Method: MCF7 cells were seeded in a 10-cm dish overnight and treated for 6 hours with 10 μg/ml (28 μM) MEL23, 5.3 μg/ml (10 μM) Nutlin-3a or DMSO. […] The experimental conditions of the results shown in FIG. 33B were as follows: FLAG-Mdm2 was transfected into cells and after 24 hours, treated with compounds, and cell lysates were incubated with anti-FLAG M2 antibody for 2 hours, followed by incubation with Protein-A/G sepharose beads for an hour at 4° C. Beads were washed and proteins eluted with 5×SDS and separated on SDS-PAGE.

RKO and RKO-E6 cells = experiment: Alamar Blue viability assay, RKO and RKO-E6 cells; type: cell-based, human; conditions: 48 hours, dilution series
Method: RKO and RKO-E6 cells were seeded in 384-well plates and treated with a dilution series of MEL23 for 48 hours as indicated. Alamar Blue was added for 16 hours and fluorescence determined on a Victor3 Plate Reader. The median percent inhibition of five replicates was determined and normalized to a no treatment control. One standard deviation is shown. […] Cells were seeded in 384-well plates and treated with a dilution series of MEL23 for 48 hours at the indicated concentrations. Alamar Blue was added for 16 hours and fluorescence determined on a Victor3 Plate Reader. The median percent inhibition of five replicates was determined and normalized to a no treatment control. One standard deviation is shown.
Cells were seeded in 384-well black clear-bottom plates (Corning Inc., Corning, N.Y., Cat. No. 07-200-655). Cells were then treated with the indicated concentration of compound. Plates were incubated for 48 hours at 37° C. Alamar Blue (Invitrogen, Cat. No. DAL1100) was added to each well to a final concentration of 10% and incubated at 37° C. for 16 hours. Fluorescence intensity was determined using the Victor3 Plate Reader (PerkinElmer). Median percent survival or growth inhibition was calculated and normalized to a no treatment control.

CCCCn1c(=O)[nH]c(O)c(C2NCCc3c2[nH]c2ccccc32)c1=O (stereo not drawn) [MEL23]
complex formation (co-immunoprecipitation) [1]: did not inhibit p53-Mdm2 complex formation; also recorded: does not inhibit | RKO cell survival (RKO and RKO-E6 cells): decreased in a dose-dependent manner | RKO-E6 cell survival (RKO and RKO-E6 cells): remained largely unaffected

— patent US20120135089A1, “E3 LIGASE INHIBITORS” (priority 2009, published 2012)
